Results reported in patent publication US7776833B2, “Use of cyclic bioisosters of purine system derivatives for treating diseases produced by disorders of niterergic and dopaminergic systems” (priority 2003, dated 2010).

Tests used:
Assay type in all cases: in vivo, Wistar rats
[1] = tested on: physical dependence from morphine (morphine abstinence); assay: Morphine abstinence syndrome, signs scored in the open field test; conditions: Morphine − (morphine + compound); compound 3 x 20 mg/kg intramuscularly; one value for the three compounds
[2] = tested on: nitrites and nitrates (NOx-); assay: Measurement of nitrates/nitrites (NOx-) in brain regions after the morphine abstinence experiment; conditions: 3 x 20 mg/kg intramuscularly
Outline: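 Rat brain regions homogenized in 20 mM HEPES pH 7.5 at 4 °C; deproteinized supernatants treated with nitrate reductase, 25 μM NADPH, 25 μM FAD (37 °C, 30 min), then DAN in acid; naphthotriazole fluorescence (ex 365/em 405 nm) against sodium nitrate standard, expressed as nmol/mg protein (Bradford).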

[3] = tested on: nitric oxide synthase (NOS); assay: Nitric oxide synthase activity in brain regions, radiometric [3H]L-citrulline method; conditions: 3 x 20 mg/kg intramuscularly
Outline: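 Rat cortex, hippocampus, mesencephalon, striatum, brainstem, hypothalamus and cerebellum were homogenized in 20 mM HEPES pH 7.5, and the 11000 g supernatant was incubated 15-60 min at 37 °C with [3H]L-arginine, 0.2 mM CaCl2, FAD, FMN, NADPH and BH4. [3H]L-citrulline was counted after Dowex removal of arginine. Ca2+-dependent/independent activity was split using EDTA ± L-NAME, per mg Bradford protein.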

[4] = Groups Nos. 3-14, compound without morphine, one value for all 12 compounds
[5] = Morphine + compound, one value for the three compounds

| Compound | Authentic differences (ξ-square criterion) in appearance of signs of abstinence: <<Wet dog>> shakes [1] | Authentic differences (ξ-square criterion) in appearance of signs of abstinence: Aggression [1] | Authentic differences (ξ-square criterion) in appearance of signs of abstinence: Convulsions [1] | Authentic differences (ξ-square criterion) in appearance of signs of abstinence: Diarrhea [1] | Authentic differences (ξ-square criterion) in appearance of signs of abstinence: Dyspnea [1] | Authentic differences (ξ-square criterion) in appearance of signs of abstinence: Forelimb jogging [1] | Authentic differences (ξ-square criterion) in appearance of signs of abstinence: Grit with teeth [1] | Authentic differences (ξ-square criterion) in appearance of signs of abstinence: Mastication [1] | Authentic differences (ξ-square criterion) in appearance of signs of abstinence: Piloerection [1] | Authentic differences (ξ-square criterion) in appearance of signs of abstinence: Ptosis [1] | Authentic differences (ξ-square criterion) in appearance of signs of abstinence: Rhinorrhea [1] | Authentic differences (ξ-square criterion) in appearance of signs of abstinence: Squeak when touched [1] | Nitrites, brainstem [2, 4] | Nitrites, cerebellum [2, 4] | Nitrites, cerebral cortex [2, 4] | Nitrites, hippocampus [2, 4] | Nitrites, hypothalamus [2, 4] | Nitrites, midbrain [2, 4] | Nitrites, striatum [2, 4] | Nitrites, brainstem [2, 5] | other results |
| --- | --- | --- | --- | --- | --- | --- | --- | --- | --- | --- | --- | --- | --- | --- | --- | --- | --- | --- | --- | --- | --- |
| O=C([O-])c1cnc2c(=O)[nH]n([C@@H]3O[C@H](CO)[C@@H](O)[C@H]3O)c(=O)c2n1.O=C([O-])c1cnc2c(=O)[nH]n([C@@H]3O[C@H](CO)[C@@H](O)[C@H]3O)c(=O)c2n1.[Na+].[Na+] [Compound 24, disodium salt of 2-carboxy-7-(β-D-ribofuranosile)pyrazino[2,3-d]-6H-pyridazine-5,8-dione] | 0.7821 | 0.7921 | 0.3456 | 0.0067 | 0.0567 | 0.6745 | 0.2994 | 0.1975 | 0.2567 | 0.0105 | 0.2131 | 0.1968 | 6.31 ± 0.58 nmol/mg of protein | 6.66 ± 0.63 nmol/mg of protein | 4.31 ± 0.37 nmol/mg of protein | 6.47 ± 0.72 nmol/mg of protein | 6.77 ± 0.83 nmol/mg of protein | 6.65 ± 0.70 nmol/mg of protein | 6.11 ± 0.29 nmol/mg of protein | 7.07 ± 0.85 nmol/mg of protein | Nitrites, cerebellum [2, 5]: 5.76 ± 0.49 nmol/mg of protein; Nitrites, cerebral cortex [2, 5]: 4.62 ± 0.27 nmol/mg of protein; Nitrites, hippocampus [2, 5]: 5.27 ± 0.41 nmol/mg of protein; Nitrites, hypothalamus [2, 5]: 6.87 ± 0.75 nmol/mg of protein; Nitrites, midbrain [2, 5]: 5.99 ± 0.58 nmol/mg of protein; Nitrites, striatum [2, 5]: 3.57 ± 0.42 nmol/mg of protein; Activity of NOS, hippocampus [3, 4]: 3.09 ± 0.16 nmol/min/mg of protein; Activity of NOS, hypothalamus [3, 4]: 5.45 ± 0.24 nmol/min/mg of protein; Activity of NOS, midbrain [3, 4]: 2.60 ± 0.29 nmol/min/mg of protein; Activity of NOS, striatum [3, 4]: 1.26 ± 0.08 nmol/min/mg of protein; Activity of NOS, hippocampus [3, 5]: 2.33 ± 0.11 nmol/min/mg of protein; Activity of NOS, hypothalamus [3, 5]: 5.47 ± 0.32 nmol/min/mg of protein; Activity of NOS, midbrain [3, 5]: 2.03 ± 0.31 nmol/min/mg of protein; Activity of NOS, striatum [3, 5]: 1.21 ± 0.10 nmol/min/mg of protein |
| O=c1[nH]n([C@@H]2O[C@H](CO)[C@@H](O)[C@H]2O)c(=O)c2ncccc12.[Na] [Compound 1, sodium salt of 7-(β-D-ribofuranosile)pyrido[2,3-d]-6H-pyridazine-5,8-dione] | 1.0000 | 0.8327 | 0.7821 | 0.0046 | 0.0722 | 0.7821 | 0.7144 | 0.1888 | 0.1847 | 0.0201 | 0.3017 | 0.1888 | 6.31 ± 0.58 nmol/mg of protein | 6.66 ± 0.63 nmol/mg of protein | 4.31 ± 0.37 nmol/mg of protein | 6.47 ± 0.72 nmol/mg of protein | 6.77 ± 0.83 nmol/mg of protein | 6.65 ± 0.70 nmol/mg of protein | 6.11 ± 0.29 nmol/mg of protein | 6.57 ± 0.72 nmol/mg of protein | Nitrites, cerebellum [2, 5]: 5.46 ± 0.44 nmol/mg of protein; Nitrites, cerebral cortex [2, 5]: 4.72 ± 0.37 nmol/mg of protein; Nitrites, hippocampus [2, 5]: 5.44 ± 0.43 nmol/mg of protein; Nitrites, hypothalamus [2, 5]: 6.57 ± 0.88 nmol/mg of protein; Nitrites, midbrain [2, 5]: 5.50 ± 0.48 nmol/mg of protein; Nitrites, striatum [2, 5]: 3.57 ± 0.42 nmol/mg of protein; Activity of NOS, hippocampus [3, 4]: 3.09 ± 0.16 nmol/min/mg of protein; Activity of NOS, hypothalamus [3, 4]: 5.45 ± 0.24 nmol/min/mg of protein; Activity of NOS, midbrain [3, 4]: 2.60 ± 0.29 nmol/min/mg of protein; Activity of NOS, striatum [3, 4]: 1.26 ± 0.08 nmol/min/mg of protein; Activity of NOS, hippocampus [3, 5]: 2.70 ± 0.14 nmol/min/mg of protein; Activity of NOS, hypothalamus [3, 5]: 5.26 ± 0.28 nmol/min/mg of protein; Activity of NOS, midbrain [3, 5]: 1.83 ± 0.23 nmol/min/mg of protein; Activity of NOS, striatum [3, 5]: 1.24 ± 0.08 nmol/min/mg of protein |
| Nc1cnc2c(=O)n([C@@H]3O[C@H](CO)[C@@H](O)[C@H]3O)[nH]c(=O)c2n1.[Na] [Compound 21, sodium salt of 3-amino-7-(β-D-ribofuranosile)pyrazino[2,3-d]-6H-pyridazine-5,8-dione] | 0.7821 | 0.7921 | 0.3456 | 0.0067 | 0.0567 | 0.6745 | 0.2994 | 0.1975 | 0.2567 | 0.0105 | 0.2131 | 0.1968 | 6.31 ± 0.58 nmol/mg of protein | 6.66 ± 0.63 nmol/mg of protein | 4.31 ± 0.37 nmol/mg of protein | 6.47 ± 0.72 nmol/mg of protein | 6.77 ± 0.83 nmol/mg of protein | 6.65 ± 0.70 nmol/mg of protein | 6.11 ± 0.29 nmol/mg of protein | 7.07 ± 0.85 nmol/mg of protein | Nitrites, cerebellum [2, 5]: 5.76 ± 0.49 nmol/mg of protein; Nitrites, cerebral cortex [2, 5]: 4.62 ± 0.27 nmol/mg of protein; Nitrites, hippocampus [2, 5]: 5.27 ± 0.41 nmol/mg of protein; Nitrites, hypothalamus [2, 5]: 6.87 ± 0.75 nmol/mg of protein; Nitrites, midbrain [2, 5]: 5.99 ± 0.58 nmol/mg of protein; Nitrites, striatum [2, 5]: 3.57 ± 0.42 nmol/mg of protein; Activity of NOS, hippocampus [3, 4]: 3.09 ± 0.16 nmol/min/mg of protein; Activity of NOS, hypothalamus [3, 4]: 5.45 ± 0.24 nmol/min/mg of protein; Activity of NOS, midbrain [3, 4]: 2.60 ± 0.29 nmol/min/mg of protein; Activity of NOS, striatum [3, 4]: 1.26 ± 0.08 nmol/min/mg of protein; Activity of NOS, hippocampus [3, 5]: 2.33 ± 0.11 nmol/min/mg of protein; Activity of NOS, hypothalamus [3, 5]: 5.47 ± 0.32 nmol/min/mg of protein; Activity of NOS, midbrain [3, 5]: 2.03 ± 0.31 nmol/min/mg of protein; Activity of NOS, striatum [3, 5]: 1.21 ± 0.10 nmol/min/mg of protein |
